Measured values from patent publication US20040086900A1, “Cloning of mammalian genes in microbial organisms and methods for pharmacological screening” (priority 1990, published 2004).
Entries after “also recorded” stand apart in the source; their conditions may differ.

Experiments:
[1] = molecular target: T1, rat DPD phosphodiesterase (Rattus norvegicus, UniProt P14646); experiment: Phosphodiesterase activity assay, cell free extract of 10 DAB yeast expressing rat DPD; type: biochemical; details: for Inhibition (%): DPD-1 extract
T1 construct: A large open reading frame of 562 codons was found; The first ATG appears at codon 46; made in house; host or cells: S. cerevisiae strain 10 DAB (pde1- pde2-) transformed with pADPD, cell free extract
T1 sequence (P14646 220-736): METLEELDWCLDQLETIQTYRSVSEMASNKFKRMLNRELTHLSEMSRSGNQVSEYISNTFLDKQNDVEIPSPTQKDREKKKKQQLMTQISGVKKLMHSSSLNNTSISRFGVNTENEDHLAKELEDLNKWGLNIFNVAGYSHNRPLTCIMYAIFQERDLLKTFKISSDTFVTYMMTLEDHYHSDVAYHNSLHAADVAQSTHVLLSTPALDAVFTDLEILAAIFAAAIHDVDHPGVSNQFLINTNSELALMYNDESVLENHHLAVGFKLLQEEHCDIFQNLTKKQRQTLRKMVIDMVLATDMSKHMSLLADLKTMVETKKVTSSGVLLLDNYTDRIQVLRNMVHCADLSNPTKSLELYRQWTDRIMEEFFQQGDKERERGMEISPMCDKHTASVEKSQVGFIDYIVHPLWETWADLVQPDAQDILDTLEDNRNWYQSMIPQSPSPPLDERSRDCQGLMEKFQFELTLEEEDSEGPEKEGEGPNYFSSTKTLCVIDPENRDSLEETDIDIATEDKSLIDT
Procedure: In order to analyse the biochemical properties of the DPD gene product, crude cell extracts were prepared from one liter cultures of 10 DAB which had been transformed with either pADNS or pADPD.
(§1) Yeast cells were grown at 30° C. for 36 hours in one liter cultures of synthetic media (SC-leucine). Cells were harvested and washed with buffer C ([…], 0.1 mM MgCl2, 0.1 mM EGTA, 1 mM β-mercaptoethanol), were resuspended in 30 ml buffer C with 50 μl 1M PMSF, and were disrupted with a French press. The extracts were centrifuged at 1,600 g for 10 min and the supernatants were spun at 18,000 g for 90 min (4° C.). The supernatant was assayed for phosphodiesterase activity (Sass, P., et al., Proc. Natl. Acad. Sci. USA 83:9303 (1986); Nikawa, J., et al., Mol. Cell. Biol. 7:3629 (1987)). All the reactions contained Tris-HCl (pH7.5) (100 mM), cell extract (50 μg protein/ml), 5′-nucleotidase (Sigma, 20 ng/ml) and 10 MM Mg^2+ (unless otherwise stated) and the indicated cyclic nucleotide concentrations. Assays for the cGMP hydrolysis used 1.5 μM cGMP. […] Reactions were incubated for 10 min at 30° C. and stopped with 5× stop solution (250 mM EDTA, 25 mM AMP, 100 mMcAMP).
This example illustrates the use of the genes and cells described in Example 1 to identify chemical compounds which inhibit the activity of a known enzyme, the rat DPD phosphodiesterase. To test the efficiency of known inhibitory compounds, cell free extracts were made as described in Phosphodiesterase Assays. Yeast cells deficient in endogenous phosphodiesterase (10 DAB), and expressing the rat DPD or yeast PDE2 genes from the described expression vector, were used. One liter cultures were harvested, washed in buffer C (20 mM MES/0.1 mM MgCl2/0.1 mM EGTA/1 mM 2-mercaptoethanol), resuspended in buffer C containing 1.5 mM phenylmethylsulfonyl fluoride, and disrupted in a French press at 4° C. Cell extracts were clarified at 100 g for 10 minutes and at 18000 g for 90 minutes. […] The cytosolic fraction was assayed in the presence or absence of inhibitory compounds. […] The percent inhibition represents the decrease in phosphodiesterase activity relative to measurements made in the absence of inhibitors.

yeast PDE2 = molecular target: T2, yeast PDE2 (Saccharomyces cerevisiae, UniProt P06776); experiment: Phosphodiesterase activity assay, cell free extract of 10 DAB yeast expressing yeast PDE2; type: biochemical, S. cerevisiae
T2 construct: made in house; host or cells: S. cerevisiae strain 10 DAB (pde1- pde2-), cell free extract
Procedure: as §1
This example illustrates the use of the genes and cells described in Example 1 to identify chemical compounds which inhibit the activity of a known enzyme, the rat DPD phosphodiesterase. To test the efficiency of known inhibitory compounds, cell free extracts were made as described in Phosphodiesterase Assays. Yeast cells deficient in endogenous phosphodiesterase (10 DAB), and expressing the rat DPD or yeast PDE2 genes from the described expression vector, were used. One liter cultures were harvested, washed in buffer C (20 mM MES/0.1 mM MgCl2/0.1 mM EGTA/1 mM 2-mercaptoethanol), resuspended in buffer C containing 1.5 mM phenylmethylsulfonyl fluoride, and disrupted in a French press at 4° C. Cell extracts were clarified at 100 g for 10 minutes and at 18000 g for 90 minutes. […] About 10^4 cpm were obtained for 10 minutes reactions and backgrounds (phosphodiesterase deficient-yeast or no extract) were about 300 cpm. The cytosolic fraction was assayed in the presence or absence of inhibitory compounds. […] The percent inhibition represents the decrease in phosphodiesterase activity relative to measurements made in the absence of inhibitors.

[2] = tested on: 10 DAB cells expressing DPD; experiment: Heat shock survival of 10 DAB yeast cells expressing DPD; type: cell-based, S. cerevisiae; details: 100 μM, 40 minutes pretreatment, heat shock 50° C. 30 minutes
From the text: This example illustrates the use of the genes and methods described to identify chemical compounds which inhibit the function of the encoded mammalian proteins expressed in yeast, even when the function of that protein is not known. 10DAB cells, which are phosphodiesterase deficient, are sensitive to heat shock. As already discussed, when these cells express DPD, they become resistant to heat shock. […] 10 DAB cells expressing DPD were maintained in rich medium (YPD) for three days at stationary phase. […] Control cultures were not treated with any inhibitor. These cultures were then heat shocked in glass tubes at 50° C. for 30 minutes. One microliter of each culture was plated.

T2 sequence (P06776 whole entry): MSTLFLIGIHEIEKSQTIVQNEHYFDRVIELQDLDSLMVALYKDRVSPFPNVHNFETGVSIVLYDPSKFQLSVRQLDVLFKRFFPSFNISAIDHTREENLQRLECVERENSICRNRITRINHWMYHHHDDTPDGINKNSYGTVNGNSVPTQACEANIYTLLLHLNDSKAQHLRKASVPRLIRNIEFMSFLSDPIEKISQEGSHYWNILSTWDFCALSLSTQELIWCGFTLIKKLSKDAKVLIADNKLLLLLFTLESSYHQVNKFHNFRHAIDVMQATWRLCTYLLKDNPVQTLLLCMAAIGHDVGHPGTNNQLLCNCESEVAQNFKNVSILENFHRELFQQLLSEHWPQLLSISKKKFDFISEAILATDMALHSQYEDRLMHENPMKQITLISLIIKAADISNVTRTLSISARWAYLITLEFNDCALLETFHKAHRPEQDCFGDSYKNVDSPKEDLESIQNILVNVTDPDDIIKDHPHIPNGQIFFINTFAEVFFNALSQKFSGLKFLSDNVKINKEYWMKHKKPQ

## Nc1nc2c(ncn2[C@@H]2O[C@@H]3COP(=O)(O)O[C@H]3[C@H]2O)c(=O)[nH]1 [cGMP]
[1]; 5 μM cAMP, cGMP 100 fold over substrate (up to 500 μM)
  Inhibition of cAMP phosphodiesterase activity by cGMP: unable to inhibit

## Cn1c(=O)c2[nH]cnc2n(C)c1=O [Theophylline]
Yeast PDE2; agent 250 μM
  inhibition at 250 µM: 0%

## COc1ccc(C2CNC(=O)C2)cc1OC1CCCC1 (stereo not drawn) [Rolipram]
Yeast PDE2; agent 100 μM
  inhibition at 100 µM: 0%
[2]
  Heat shock sensitivity after treatment (inhibition of DPD function): much more sensitive to heat shock; also recorded: suppression of heat shock resistance

## CC(C)Cn1c(=O)n(C)c(=O)c2[nH]cnc21 [IBMX]
Yeast PDE2; agent 250 μM
  Inhibition (%): 0.0%
[1]; agent 250 μM
  Inhibition (%): 87. %

## CCCCOc1cc(CC2CNC(=O)N2)ccc1OC (stereo not drawn) [R020 1724]
Yeast PDE2; agent 100 μM
  Inhibition (%): 3.0%
[1]; agent 0.1 μM
  Inhibition (%): 35. %
[1]; agent 1.0 μM
  Inhibition (%): 52. %
[1]; agent 10.0 μM
  Inhibition (%): 79. %
[1]; agent 100.0 μM
  Inhibition (%): 92. %
[1]; cell extract, summary of Example 3
  Inhibition of enzymatic activity of the rat DPD gene product (in words): most effective inhibitors of DPD activity; also recorded: inhibited
